Test system: SREBP-1c
Assay: SREBP-1c expression under high-glucose/high-insulin exposure, primary hepatocytes (western blot)
Assay type: cell-based, mouse
Settings: 0.3-10 μM ligand
Experimental: Liver cells were collected from male C57BL/6 mice (Central Lab. Animal Inc., Seoul) according to a method by Seglen et al. (Exp Cell Res., 82, pp 391-398, 1973). Each C57BL/6 mouse was anesthetized and then the abdomen thereof was incised. Subsequently, the hepatic portal vein was intubated and a gas mixture of 5% CO2 and 95% O2 was insufflated thereinto. A Ca^2+ and Mg^2+-free Hank's balanced salt solution at 37° C. was flowed into the tube to remove blood in the liver. Subsequently, a 0.1% collagenase type IV (Sigma, US) solution was flowed thereinto. The liver tissue was removed from the body, and then prepared into a hepatocyte suspension. The prepared hepatocyte suspension was centrifuged at 50×g for two minutes. […]
Sodium dodecyl sulfate-polyacrylamide gel electrophoresis (SDS-PAGE) was carried out by means of a gel electrophoresis device (Mighty Small SE 250, Hoefer Scientific Instruments, San Francisco) according to a method by Laemmli (UK, Nature 227, 680-685, 1970). […] Whether total protein contents in samples are the same is determined using anti-β-actin and anti-LaminA/C antibodies. Changes in protein expression amounts were determined by measuring the intensities of chemiluminescence signals on the blot by means of densitometry. […] Each lane was calculated using AlphaEase™ version 5.5 software and background intensity was removed from the calculated values. […]

`CCc1cnc(N2CCC(c3nc(COc4ccc(-n5cnnn5)cc4)cs3)CC2)nc1` [MBX2982, 4-((4-(1H-tetrazol-1-yl)phenoxy)methyl)-2-(1-(5-ethylpyrimidin-2-yl)piperidin-4-yl)thiazole] was tested, and the “SREBP-1c and nuclear (active-type) SREBP-1C expression increased by high-glucose/high-insulin” value was “completely inhibited”.
